System: 653999-131-R-J2-PDC complex spheroid viability
Assay: Anticancer human tumor 653999-131-R-J2-PDC patient-derived lung adenocarcinoma cell line growth inhibition
Conditions: for IC50: curve of first compound; for viability, T/C: stronger effect = lower value
Outline: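 Drug combinations with the LSD1 inhibitor iadademstat tested on tumor cells co-cultured as spheroids with endothelial cells and mesenchymal stem cells. Concentrations descended in half-log increments from clinical Cmax or 10 microM.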

[1] = second compound 0.1 µM, first compound 0.00949 µM
[2] = second compound 0.1 µM, first compound 0.03 µM
[3] = second compound 0.1 µM, first compound 0.0949 µM
[4] = second compound 0.1 µM, first compound 0.3 µM
[5] = second compound 0.1 µM, first compound 0.949 µM
[6] = second compound 0.1 µM, first compound 3 µM
[7] = second compound 0.316 µM, first compound 0.00949 µM
[8] = second compound 0.316 µM, first compound 0.03 µM
[9] = second compound 0.316 µM, first compound 0.0949 µM
[10] = second compound 0.316 µM, first compound 0.3 µM
[11] = second compound 0.316 µM, first compound 0.949 µM
[12] = second compound 0.316 µM, first compound 3 µM
[13] = second compound 1 µM, first compound 0.00949 µM
[14] = second compound 1 µM, first compound 0.03 µM
[15] = second compound 1 µM, first compound 0.0949 µM
[16] = second compound 1 µM, first compound 0.3 µM
[17] = second compound 1 µM, first compound 0.949 µM
[18] = second compound 1 µM, first compound 3 µM
[19] = second compound 3.16 µM, first compound 0.00949 µM
[20] = second compound 3.16 µM, first compound 0.03 µM
[21] = second compound 3.16 µM, first compound 0.0949 µM
[22] = second compound 3.16 µM, first compound 0.3 µM
[23] = second compound 3.16 µM, first compound 0.949 µM
[24] = second compound 3.16 µM, first compound 3 µM
[25] = second compound 10 µM, first compound 0.00949 µM
[26] = second compound 10 µM, first compound 0.03 µM
[27] = second compound 10 µM, first compound 0.0949 µM
[28] = second compound 10 µM, first compound 0.3 µM
[29] = second compound 10 µM, first compound 0.949 µM
[30] = second compound 10 µM, first compound 3 µM
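Note: spheroids exposed to agents for seven days before readout.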

Which results are given for `NS(=O)(=O)OCC1CC(n2ccc3c(NC4CCc5ccccc54)ncnc32)CC1O` (stereo not given) + NC1CC1c1ccc(-c2cccc(O)c2)cc1?
IC50 (second compound 0.1 µM): > 3000 nM; IC50 (second compound 0.316 µM): > 3000 nM; IC50 (second compound 1 µM): > 3000 nM; IC50 (second compound 3.16 µM): > 3000 nM; IC50 (second compound 10 µM): > 3000 nM; viability, T/C [1]: 94.2%; viability, T/C [2]: 97.9%; viability, T/C [3]: 107%; viability, T/C [4]: 74.1%; viability, T/C [5]: 64.9%; viability, T/C [6]: 60%; viability, T/C [7]: 91.8%; viability, T/C [8]: 95.7%; viability, T/C [9]: 118%; viability, T/C [10]: 81.4%; viability, T/C [11]: 66%; viability, T/C [12]: 61.6%; viability, T/C [13]: 94.4%; viability, T/C [14]: 96.4%; viability, T/C [15]: 113%; viability, T/C [16]: 72.7%; viability, T/C [17]: 64.5%; viability, T/C [18]: 60.7%; viability, T/C [19]: 83.2%; viability, T/C [20]: 102%; viability, T/C [21]: 132%; viability, T/C [22]: 64.9%; viability, T/C [23]: 64.7%; viability, T/C [24]: 61.1%; viability, T/C [25]: 94.1%; viability, T/C [26]: 105%; viability, T/C [27]: 132%; viability, T/C [28]: 68.8%; viability, T/C [29]: 61.8%; viability, T/C [30]: 48.2%

Which IC50 (second compound 0.1 µM) does the source give for `Nc1ccccc1NC(=O)c1ccc(CNC(=O)OCc2cccnc2)cc1` + NC1CC1c1ccc(-c2cccc(O)c2)cc1 here?
The IC50 was 352 nM.

What about the IC50 (second compound 0.316 µM) of the same molecule?
The IC50 was 245 nM.

And the IC50 (second compound 1 µM)?
Its IC50 is 293 nM.

And the IC50 (second compound 3.16 µM)?
The IC50 was 213 nM.

What about the IC50 (second compound 10 µM) of the same molecule?
The IC50 was 177 nM.

And the viability, T/C [1]?
Its viability, T/C is 89%.

What about the viability, T/C [2] of the same molecule?
Its viability, T/C is 101%.

And the viability, T/C [3]?
The viability, T/C was 81.5%.

What about the viability, T/C [4] of the same molecule?
The viability, T/C was 52.9%.

What about the viability, T/C [5] of the same molecule?
The viability, T/C was 22.6%.

And the viability, T/C [6]?
Its viability, T/C is 1.35%.

And the viability, T/C [7]?
Its viability, T/C is 93%.

What about the viability, T/C [8] of the same molecule?
Its viability, T/C is 85.8%.

And the viability, T/C [9]?
The viability, T/C was 64.3%.

What about the viability, T/C [10] of the same molecule?
Its viability, T/C is 49.5%.

What about the viability, T/C [11] of the same molecule?
Its viability, T/C is 20.4%.

And the viability, T/C [12]?
The viability, T/C was 1.41%.

What about the viability, T/C [13] of the same molecule?
Its viability, T/C is 81.2%.

And the viability, T/C [14]?
The viability, T/C was 68.5%.

What about the viability, T/C [15] of the same molecule?
The viability, T/C was 77.9%.

And the viability, T/C [16]?
The viability, T/C was 48%.

And the viability, T/C [17]?
The viability, T/C was 13.1%.

What about the viability, T/C [18] of the same molecule?
Its viability, T/C is 0.97%.

And the viability, T/C [19]?
The viability, T/C was 84.6%.

And the viability, T/C [20]?
The viability, T/C was 74.4%.

What about the viability, T/C [21] of the same molecule?
Its viability, T/C is 69.4%.

And the viability, T/C [22]?
Its viability, T/C is 42.1%.

And the viability, T/C [23]?
The viability, T/C was 15.8%.

And the viability, T/C [24]?
The viability, T/C was 1.74%.

And the viability, T/C [25]?
Its viability, T/C is 76.1%.

And the viability, T/C [26]?
The viability, T/C was 82.2%.

What about the viability, T/C [27] of the same molecule?
Its viability, T/C is 57.1%.

And the viability, T/C [28]?
The viability, T/C was 42.3%.

And the viability, T/C [29]?
Its viability, T/C is 13.3%.

And the viability, T/C [30]?
Its viability, T/C is 0.95%.

What does the source list for `O=C(C=Cc1cccc(S(=O)(=O)Nc2ccccc2)c1)NO` + NC1CC1c1ccc(-c2cccc(O)c2)cc1?
IC50 (second compound 0.1 µM): > 3000 nM; IC50 (second compound 0.316 µM): 296 nM; IC50 (second compound 1 µM): 293 nM; IC50 (second compound 3.16 µM): 294 nM; IC50 (second compound 10 µM): 265 nM; viability, T/C [1]: 99.8%; viability, T/C [2]: 109%; viability, T/C [3]: 88.8%; viability, T/C [4]: 48.7%; viability, T/C [5]: 8.83%; viability, T/C [6]: 99.3%; viability, T/C [7]: 92.8%; viability, T/C [8]: 99%; viability, T/C [9]: 87.9%; viability, T/C [10]: 45.2%; viability, T/C [11]: 9.89%; viability, T/C [12]: 93.6%; viability, T/C [13]: 78.8%; viability, T/C [14]: 94.4%; viability, T/C [15]: 92.4%; viability, T/C [16]: 49.1%; viability, T/C [17]: 8.18%; viability, T/C [18]: 89%; viability, T/C [19]: 88.2%; viability, T/C [20]: 101%; viability, T/C [21]: 89.8%; viability, T/C [22]: 45.8%; viability, T/C [23]: 7.35%; viability, T/C [24]: 94.9%; viability, T/C [25]: 83.5%; viability, T/C [26]: 88.6%; viability, T/C [27]: 83.3%; viability, T/C [28]: 46%; viability, T/C [29]: 9.36%; viability, T/C [30]: 82.4%

— PubChem BioAssay AID1918939 (Molecular Pharmacology Branch, DTP, NCI, 2023)
